Laboratory results as given in US20260327260A1, “PHOSPHONOALANINE OLIGOPEPTIDES AND METHODS OF MAKING AND USE THEREOF” (priority 2023, published 2026).

Tests used:
PnaA [1] = assay: PnaA kinetics: conversion of PnPy and L-Asp to L-PnAla and OAA, coupled to MDH/NADH oxidation (340 nm); assay type: biochemical, Streptomyces sp. NRRL S-515; details: role: substrate (PnPy, 0.0025-0.015 mM); second substrate L-Asp 5 mM; pH 7.5, 30° C; apparent steady state
Method: (§1) Next, kinetic analyses were performed to derive insight on the substrate specificity and reaction selectivity of PnaA transamination. Apparent steady state parameters were calculated in spectrophotometric assays by coupling the formation of OAA, PnPy, and 2KG with NADH oxidation in the presence of malate dehydrogenase (MDH), PnPy reductase (VlpB), and 3-phosphoglycerate dehydrogenase (SerA), respectively (FIG. 18A-FIG. 24B). […] The micromolar Km value observed for PnaA with PnPy is similar to that of other PepM coupling enzymes such as PnPy decarboxylase [B27, B30].
(§2) Kinetic analyses. All reactions (400 μL) were performed in 50 mM HEPES, 150 mM NaCl, pH 7.5, 30° C. using an Agilent Cary 300 spectrophotometer. The instrument was first blanked using the reaction containing the enzymes and the fixed substrate (without NADH). Initial rates were calculated from continual changes in absorbance (340 nm) before and after substrate addition. Data were analyzed using SigmaPlot 15.
Conversion of PnPy and L-Asp to L-PnAla and OAA by His6-SUMO-PnaA. Each reaction contained 0.5 μM PnaA, 5 μM MDH, 200 uM NADH, 5 mM L-Asp, and were initiated by the addition of 0.0025, 0.00375, 0.005, 0.0065, 0.008, 0.01, or 0.015 mM PnPy. PnaA was pre-incubated with PLP (1:5) on ice for 10 min prior to use.

PnaA [2] = assay: PnaA reverse transamination reaction, 31P NMR/LC-MS (PnAla to PnPy); assay type: biochemical, Streptomyces sp. NRRL S-515; details: role: product, 2 hours
Method: Biochemical assays of His6-SUMO-PnaA. Typical reaction mixtures (300 μL) contained 20 μM His6-SUMO-PnaA, 1.5 mM L-PnAla, 3 mM oxaloacetate, and 100 μM pyridoxal 5′-phosphate (PLP) in 50 mM HEPES, 150 mM NaCl, pH 7.5. Reactions were incubated at 30° C. for 2 hours, heat inactivated at 65° C. for 10 minutes, and then analyzed by NMR and LC-MS as described above.
Reactions in time course experiments (150 μL) contained 10 μM His6-SUMO-PnaA, 1.5 mM L-PnAla, 10 mM oxaloacetate (OAA), and 100 μM pyridoxal 5′-phosphate (PLP) in 50 mM HEPES, 150 mM NaCl, pH7.5. Samples were where heat inactivated 1, 5, 10, 30, 60, 120, and 240 min after initiation and then analyzed by ^31P NMR as described above.
Reactions examining the effect of keto-acid acceptor concentrations were the same as above, except they contained 1.5, 3, 5, or 10 mM of (OAA). Samples were heat inactivated after 120 min and then analyzed by ^31P NMR as described above.

MurA = details: role: inhibitor; mimics phosphoenolpyruvate; cited from earlier work
[3] = system: 1-deoxy-D-xylulose 5-phosphate reductoisomerase; details: role: inhibitor; cited from earlier work
malaria = details: cited from earlier work
bacteria = details: cited from earlier work
threonine synthase = details: role: inhibitor; cited from earlier work
PnaA [4] = assay: PnaA kinetics: conversion of L-Glu and OAA to 2-KG and L-Asp, coupled to SerA/NADH oxidation; assay type: biochemical, Streptomyces sp. NRRL S-515; details: role: substrate (L-Glu, 0.5-15 mM); second substrate OAA 5 mM; pH 7.5, 30° C
Method: In addition to the transamination of Pn substrates, PnaA was also capable of catalyzing the reversible conversion of Glu and OAA into 2KG and Asp.
as §2
Conversion of L-Glu and OAA to 2-KG and L-Asp by His6-SUMO-PnaA. Each reaction contained 1 μM PnaA, 5 μM SerA, 200 uM NADH, 5 mM OAA, the 340 nm absorbance change was recorded for 1 min to measure the background assumption of OAA by SerA, and were initiated by the addition of 0.5, 1, 1.5, 2, 3, 4, 6, 10, or 15 mM L-Glu. PnaA was pre-incubated with PLP (1:5) on ice for 10 min prior to use.

[5] = system: phosphoserine phosphatases; details: role: inhibitor; cited from earlier work
PnaB = PnaB ligation reactions (31P NMR, LC-HRMS); assay type: biochemical, Streptomyces sp. NRRL S-515; details: role: substrate
Method: (§3) These hypotheses were tested by overproducing and purifying recombinant PnaB and PnaC from E. coli for use in a series of biochemical assays. PnAla, Ala, and ATP were incubated with PnaB or PnaC and the reactions were monitored by ^31P NMR and LC-HRMS. […] To determine if either enzyme could convert Ala-Val into phosphonoalamide A, protein was removed from the PnaC reaction by ultrafiltration and Ala, ATP, and fresh PnaC or PnaB was added to the filtrate. LC-HRMS identified PnAla-Ala-Val as a product following the addition of PnaB, but not PnaC (FIG. 25A-FIG. 25C).
Biochemical assays of His6-PnaB. Typical reaction mixtures ([…]) contained 10 μM His6-PnaB, 3 mM ATP, 1 mM L-PnAla, 3 mM chemically synthesized L-Ala-L-Val, L-Val-L-Val, L-Ala-L-Ile, or L-Thr-L-Val in 50 mM Tris-HCl, 100 mM NaCl, 2 mM MgCl2 pH 9. Reactions were incubated at 30° C. for 2 hours, heat inactivated at 65° C. for 10 minutes, and then analyzed by NMR and LC-MS as described above.

PnaA with PnaD = assay: PnaD-PnaA coupled forward reaction, 31P NMR (PEP to PnAla); assay type: biochemical, Streptomyces sp. NRRL S-515; details: role: product, PEP 1.5 mM, 2 hours
Method: Biochemical assays of His6-SUMO-PnaA with His6-PnaD. Typical reaction mixtures (300 μL) contained 20 μM His6-PnaD, 20 μM His6-SUMO-PnaA, 1.5 mM PEP, 3 mM L-Asp, 100 μM pyridoxal 5′-phosphate (PLP), and 2 mM MgCl2 in 50 mM HEPES, 150 mM NaCl, pH 7.5. Reactions were incubated at 30° C. for 2 hours, heat inactivated at 65° C. for 10 minutes, and then analyzed by ^31P NMR and LC-MS as described above.
Reactions in timecourse experiments ([…]) contained 10 μM His6-PnaD, 10 μM His6-SUMO-PnaA, 1.5 mM PEP, 10 mM L-Asp, 100 μM pyridoxal 5′-phosphate (PLP), and 2 mM MgCl2 in 50 mM HEPES, 150 mM NaCl, pH 7.5. Samples were where heat inactivated 1, 5, 10, 30, 60, 120, and 240 min after initiation and then analyzed by ^31P NMR as described above.
Reactions examining the effect of amino donor concentrations were the same as above, except they contained 1.5, 3, 5, or 10 mM of (L-Asp). Samples were heat inactivated after 120 min and then analyzed by ^31P NMR as described above.

PnaA [6] = assay: PnaA kinetics: conversion of L-PnAla and OAA to PnPy and L-Asp, coupled to PnPy reductase VlpB/NADH oxidation; assay type: biochemical, Streptomyces sp. NRRL S-515; details: second substrate OAA 5 mM
Method: as §1, §2
Conversion of L-PnAla and OAA to PnPy and L-Asp by His6-SUMO-PnaA. Each reaction contained 1 μM PnaA, 5 μM VlpB, 200 uM NADH, 5 mM OAA, the 340 nm absorbance change was recorded for 1 min to measure the background assumption of OAA by VlpB. Then the reactions were initiated by the addition of 0.1, 0.2, 0.35, 0.5, 0.65, 0.8, or 1 mM PnAla. PnaA was pre-incubated with PLP (1:5) on ice for 10 min prior to use.

PnaC = PnaC dipeptide ligation reactions (LC-HRMS); assay type: biochemical, Streptomyces sp. NRRL S-515; details: role: substrate
Method: as §3
The ATP-Grasp ligases PnaC and PnaB underlie diversification of L-PnAla-containing oligopeptides. To understand the biochemical nature of this potential phosphonopeptide diversity, the substrate specificity of the dipeptide ligase PnaC was first delineated. Microscale biochemical reactions containing purified PnaC were performed with every combination of the 20 canonical amino acids and L-allo-threonine (231 total pairs of substrates). Reactions were analyzed by LC-HRMS to reveal putative dipeptides from 146 out of the 231 combinations. To distinguish residues in reactions containing isomeric pairs (e.g., Ile and Leu, Thr and allo-Thr) new reactions were prepared using ^15N-Ile and 4-^13C-2,3-D2-Thr as substrates. LC-HRMS/MS fragmentation analysis was then performed to verify all products and determine structures.
Biochemical assays of His6-PnaC. Typical reaction mixtures ([…]) contained 10 μM His6-PnaC, […], 3 mM of each L-amino acid, and 5 mM ATP in 50 mM Tris-HCl, 100 mM NaCl, 2 mM MgCl2 pH 9. Reactions were incubated at 30° C. for 16 hours, heat inactivated at 65° C. for 10 minutes, and then analyzed by LC-MS as described above.
Analysis of PnaC and PnaB substrate specificity reactions. An extracted ion chromatogram (EIC) was obtained for each potential product m z. The shape and retention time of each EIC were used to evaluate the quality and plausibility of true signals, and samples with low-confidence EICs were re-analyzed individually, to address the challenges of ion suppression (FIG. 31A-FIG. 31C) and background noise (FIG. 32A-FIG. 32D).

[7] = system: metabotropic glutamate receptors; details: cerebral tissues; cited from earlier work
[8] = role: substrate (PnAla), compared with PnPy
[9] = role: substrate (PnAla, 0.1-1 mM), pH 7.5, 30° C, reverse reaction

O=C(O)C(=O)CP(=O)(O)O [PnPy, 3-phosphonopyruvate]
Km (PnaA [1]): 4.8 µM | kcat (PnaA [1]): 2.3 s⁻¹ | yield of PnPy from the reverse reaction (PnaA [2]; L-PnAla 1.5 mM, OAA 3 mM, PLP 100 μM, 30° C): 48% | PnPy accumulation at apparent equilibrium (PnaA [2]; PnAla 1.5 mM, OAA varied 1.5, 3, 5 or 10 mM): ≥ 70%

C[C@@H]1O[C@@H]1P(=O)(O)O [fosfomycin]
MurA inhibition (MurA): covalently inhibit MurA

O=CN(O)CCCP(=O)(O)O [fosmidomycin]
inhibition of 1-deoxy-D-xylulose 5-phosphate reductoisomerase [3]: inhibiting 1-deoxy-D-xylulose 5-phosphate reductoisomerase | results against malaria in human trials (malaria): promising results against malaria in human trials

CC(C)[C@H](NC(=O)[C@H](C)NC(=O)[C@@H](N)CP(=O)(O)O)C(=O)O [phosphonoalamide A]
spectrum of antimicrobial activity (bacteria): differing spectrums of antimicrobial activity

N[C@@H](/C=C\CP(=O)(O)O)C(=O)O [(Z)-L-2-amino-5-phosphono-3-pentenoic acid]
threonine synthase inhibition (threonine synthase): threonine synthase inhibitor

N[C@@H](CCC(=O)O)C(=O)O [Glu]
Km (PnaA [4]): 7500 µM | kcat (PnaA [4]): 0.31 s⁻¹

NC(CP(=O)(O)O)C(=O)O (stereo not drawn) [PnAla, 2-amino-3-phosphonopropionic acid]
phosphoserine phosphatase inhibition [5]: inhibitor of phosphoserine phosphatases | conversion of PnAla into phosphonoalamide A (PnaB; L-PnAla 1 mM, with Ala-Val 3 mM and ATP 3 mM, pH 9, 30° C): complete conversion of PnAla into phosphonoalamide A by PnaB | modification of PnAla with Ala (PnaB; with Ala and ATP, up to 16 hrs): PnAla remained unmodified | PnAla accumulation at apparent equilibrium (PnaA with PnaD; Asp varied 1.5, 3, 5 or 10 mM): ≥ 70% | yield of PnAla from the PepM-coupled forward reaction (PnaA with PnaD; L-Asp 3 mM, PLP 100 μM, 30° C): 50% | higher Michaelis constant (fold, reverse reaction compared with PnPy reaction) (PnaA [6]; [8]): 100 fold | lower catalytic efficiency (fold, reverse reaction compared with PnPy reaction) (PnaA [6]; [8]): 100 fold | Km (PnaA [6]; [9]): 327 µM | kcat (PnaA [6]; [9]): 2.4 s⁻¹ | modification of PnAla with Ala (PnaC; with Ala and ATP, up to 16 hrs): PnAla remained unmodified | conversion of PnAla with Ala-Val (PnaC; with chemically synthesized Ala-Val and ATP): PnAla remained unmodified by PnaC | metabotropic glutamate receptor antagonism [7]: selective antagonist of metabotropic glutamate receptors

C[C@H](N)C(=O)N[C@@H](C)C(=O)N[C@@H](CP(=O)(O)O)C(=O)O [phosphonoalamide F, reference compound]
spectrum of antimicrobial activity (bacteria): differing spectrums of antimicrobial activity
